Experiments:
TRPV1 = target: T1, TRPV1 (Rattus norvegicus, UniProt O35433); assay: Whole-cell patch clamp of TRPV1 currents in HEK293 cells overexpressing TRPV1 (HEK293-V1); assay type: cell-based; conditions: for attainment of the pore-dilated state: 50 μM, induction time 25 hours (FIGS. 37-40C); for IV relationship / TRPV1 channel state: after cannabinoid at 50 (voltage ramp); for EC50: calculated from Imax per dose, HEK-TRPV1 patch clamp, read-out: EC50 at TRPV1; for inward current induced: cannabinoid at 50 (FIGS. 3A, 4A, 6A, 7A), applied at data point 60; for time course of induced TRPV1 current (sustained or inactivating): cannabinoid at 50, 5 μM myrcene or 1 μM capsaicin; for Max I amplitude: 120 s, Ca 1 mM external, unbuffered internal calcium
T1 construct: FLAG; expressed in transfected cells
T1 sequence (O35433 whole entry): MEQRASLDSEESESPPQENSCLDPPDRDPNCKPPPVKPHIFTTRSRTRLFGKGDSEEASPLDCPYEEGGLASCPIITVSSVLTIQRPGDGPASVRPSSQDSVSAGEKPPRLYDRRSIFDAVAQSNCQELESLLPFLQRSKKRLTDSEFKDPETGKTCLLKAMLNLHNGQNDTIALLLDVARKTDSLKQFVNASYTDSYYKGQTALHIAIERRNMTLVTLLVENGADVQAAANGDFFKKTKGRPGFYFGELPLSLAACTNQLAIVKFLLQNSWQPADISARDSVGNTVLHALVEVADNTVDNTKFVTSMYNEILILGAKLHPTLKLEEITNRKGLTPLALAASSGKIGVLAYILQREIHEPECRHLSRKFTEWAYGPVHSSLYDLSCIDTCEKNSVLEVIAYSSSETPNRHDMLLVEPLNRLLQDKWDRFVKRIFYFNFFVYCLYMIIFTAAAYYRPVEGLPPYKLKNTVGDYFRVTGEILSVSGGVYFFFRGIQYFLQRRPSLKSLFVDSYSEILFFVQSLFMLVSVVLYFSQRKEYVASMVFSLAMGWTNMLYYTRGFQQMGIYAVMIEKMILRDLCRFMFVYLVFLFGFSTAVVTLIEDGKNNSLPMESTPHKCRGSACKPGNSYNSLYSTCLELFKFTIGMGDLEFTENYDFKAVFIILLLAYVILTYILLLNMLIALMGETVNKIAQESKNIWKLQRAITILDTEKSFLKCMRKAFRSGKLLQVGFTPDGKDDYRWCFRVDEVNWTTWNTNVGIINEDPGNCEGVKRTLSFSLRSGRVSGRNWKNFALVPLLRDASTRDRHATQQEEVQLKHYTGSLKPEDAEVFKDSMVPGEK
Description: HEK TRexTRPV1 were cultured in DMEM, 10% Fetal Bovine Serum, 2 mM Lglutamine, 10 μg/ml Blasticidin (Calbiochem, San Diego Calif.), 400 μg/ml Zeocin (InvivoGen, San Diego Calif.), where indicated transgene expression was induced using 1 μg/ml Tetracycline for 16-24 hrs. Unless otherwise indicated, basal expression of TRPV1 without induction was sufficient for these studies, and comparisons were made to untransfected HEK where needed. HEKTRex293 over-expressing human TRPV2, human TRPA1 and human TRPM8 were obtained from SB Drug Discovery (Glasgow, Scotland) and cultured as described above. The cannabinoids and terpenes were assayed in HEK cells that have been transfected with the TRPV1 ion channel protein. These cells are called HEK293-V1 cells.
This technique is used to study ionic currents from HEK293-V1. The voltage across the cell membrane is controlled and the ionic currents associated with changes in voltage are measured. A micropipette tip is pulled to a few micrometers in diameter followed by heating the tip to produce a smooth surface that assists in forming a high resistance seal with the cell membrane. To obtain this high resistance seal, the micropipette is pressed against a cell membrane and suction is applied. The membrane then fuses onto the glass surface creating a high resistance in the gigaohm range. This makes it possible to isolate electronically the ionic currents measured across the membrane patch or across the entire cell.
Patch-clamp experiments were performed in the whole-cell configuration at 21-25° C. Patch pipettes had resistances of 2-3 MΩ. Data was acquired with PatchMaster software (HEKA, Lambrecht, Germany), controlling an EPC-9 amplifier. Voltage ramps of 50 ms spanning the voltage range from −100 to 100 mV were delivered from a holding potential of 0 mV at a rate of 0.5 Hz over a period of 500 ms to 180 seconds (3 minutes). Voltages were corrected for a liquid junction potential of 10 mV. Currents were filtered at 2.9 kHz and digitized at 100 μs intervals. Capacitive currents were determined and corrected before each voltage ramp. The development of currents for a given potential was extracted from individual ramp current records by measuring the current amplitudes at voltages of −80 mV and +80 mV. Data were analyzed with FitMaster (HEKA, Lambrecht, Germany), and IgorPro (WaveMetrics, Lake Oswego, Oreg., USA). Where applicable, statistical errors of averaged data are given as mean±s.e.m with n determinations. The activated current amplitudes are analyzed by nA rather than pA/pF. […] Also the cell size selected for patching was in the 9 -12 pF range.
For patch-clamp recordings, HEK293 cells were kept in a standard sodium-based external Ringer's solution containing (mM): 140 NaCl, 1 CaCl2, 2 MgCl2, 2.8 KCl, 11 glucose, 10 HEPES-NaOH with a pH of 7.2 and osmolarity of 300 mOsmol. To assess the effects of external Calcium (Ca) on TRPV1 inactivation kinetics, Ca at different levels were tested including 0, 1, and 3 mM. In Experiments with zero external Ca, EGTA 10 mM was added and the Na concentration was lowered to 130 mM to maintain standard osmotic conditions at 300 mOsmol. For rapid external solution application and exchanges we used the SmartSquirt delivery system (Auto-Mate Scientific, San Francisco Calif., USA) that included four cryo tubes allowing for solution exchanges within one patch. This system included a ValveLink TTL interface between the electronic valves and the EPC10 amplifier (HEKA, Lambrecht, Germany). This electronic configuration allowed for programmable solution changes via the PatchMaster software (HEKA, Lambrecht, Germany).

WT HEK293 = assay: Bulk calcium assay in untransfected WT HEK293; assay type: cell-based; conditions: 10 μM, 1 mM external Ca2+

Row | SMILES | attainment of the pore-dilated state (TRPV1) | IV relationship / TRPV1 channel state (TRPV1) | EC50 (TRPV1) [µM] | inward current induced (TRPV1) | time course of induced TRPV1 current (sustained or inactivating) (TRPV1) | Rate of inactivation (TRPV1; dose 10 micromolar) [dpsec^−1] | Time to max (TRPV1; dose 10 micromolar) [s] | Max I amplitude (TRPV1; dose 10 micromolar) [nA] | Rate of inactivation (TRPV1; dose 30 micromolar) | Time to max (TRPV1; dose 30 micromolar) [s] | Max I amplitude (TRPV1; dose 30 micromolar) [nA] | Rate of inactivation (TRPV1; dose 50 micromolar) | Time to max (TRPV1; dose 50 micromolar) [s] | Max I amplitude (TRPV1; dose 50 micromolar) [nA] | Rate of inactivation (TRPV1; dose 150 micromolar) | Time to max (TRPV1; dose 150 micromolar) [s] | Max I amplitude (TRPV1; dose 150 micromolar) [nA] | calcium response of WT HEK293 (WT HEK293)
1 | CCCCCc1cc(O)c(C/C=C(\C)CCC=C(C)C)c(O)c1 [CBG, Cannabigerol] | lack of attainment of the pore-dilated state | outwardly-rectifying IV curve consistent with un-dilated TRPV1 (state 1) | 19 | 4-5 nA | sustained | 0 | 120 | 0.2 | .007 dpsec^−1 | 94 | 0.6 | .008 dpsec^−1 | 96 | 0.7 | .014 dpsec^−1 | 92 | 0.9 | 
2 | C=C(C)[C@@H]1CCC(C)=C[C@H]1c1c(O)cc(CCC)cc1O [CBDV, Cannabidivarin] | lack of attainment of the pore-dilated state | outwardly-rectifying IV curve consistent with un-dilated TRPV1 (state 1) | 56 | 2-3 nA | sustained | 0 | 148 | 0.5 | .013 dpsec^−1 | 136 | 1.5 | .009 dpsec^−1 | 82 | 0.9 | .14 dpsec^−1 | 62 | 3.9 | responding slightly

— patent publication US20220387375A1, “TRPV1 ACTIVATION-MODULATING COMPLEX MIXTURES OF CANNABINOIDS AND/OR TERPENES” (GBS Global Biopharma, Inc., priority 2018, published 2022)
